# Source: patent US20070042014A1, “Combination of a serotonin reuptake inhibitor and loxapine” (H. Lundbeck A/S, priority 2003, published 2007)
# Tested on: 5-HT levels in ventral hippocampus
# Assay: Microdialysis of brain serotonin (5-HT) levels in ventral hippocampus of rats
# Type: in vivo, rat
# Settings: loxapine alone; male Wistar rats
# Method: Male albino rats of a Wistar-derived strain (285-320 g; Harlan, Zeist, The Netherlands) were used for the experiments. Upon surgery, rats were housed individually in plastic cages (35×35×40 cm), and had free access to food and water. Animals were kept on a 12 h light schedule (light on 7:00 a.m.). The experiments are concordant with the declarations of Helsinki and were approved by the animal care committee of the faculty of mathematics and natural science of the University of Groningen.
# Preceding surgery rats were anaesthetised using isoflurane (O2/N2O; 300/300 ml/min). Lidocaine-HCl, 10% (m/v) was used for local anaesthesia.
# Rats were allowed to recover for at least 24 h. […]
# Twenty-μl microdialysate samples were injected via an autoinjector (CMA/200 refrigerated microsampler, CMA, Sweden) onto a 100×2.0 mm C18 Hypersil 3 μm column (Bester, Amstelveen, the Netherlands) and separated with a mobile phase consisting of 5 g/L di-ammoniumsulfate, 500 mg/L EDTA, 50 mg/L heptane sulphonic acid, 4% methanol v/v, and 30 μl/L of triethylamine, pH 4.65 at a flow of 0.4 ml/min (Shimadzu LC-10 AD). 5-HT was detected amperometrically at a glassy carbon electrode at 500 mV vs Ag/AgCl (Antec Leyden, Leiden, The Netherlands). […]
smiles,measurement,value
CN1CCN(C2=Nc3ccccc3Oc3ccc(Cl)cc32)CC1 [loxapine],"effect on 5-HT levels in ventral hippocampus (microdialysis, % of control level)",no significant effect
